For 22 compounds, IC50 results are on record in patent US20240101572A1, “DIHYDROOXADIAZINONE COMPOUND AND PHARMACEUTICAL USE THEREOF” (Japan Tobacco Inc., priority 2022, published 2024).

One test addresses full-length human PLD1 (Homo sapiens (Human), UniProt Q13393). In words: Evaluation of human PLD1 enzyme inhibitory activity (Amplex Red / choline oxidase fluorescence). The test is classed as biochemical. Here is the method:
A method for measuring human PLD1 enzyme inhibitory activity using an enzyme in which a FLAG-tag is added to the N-terminus of full-length human PLD1 (1-1036 amino acids) is shown below.
(§1) DNA fragment in which a FLAG-tag sequence is added to the 5′-end of full-length human PLD1 was amplified by PCR method, using commercially available human PLD1 gene (Promega KK) as a template. The amplified DNA fragment was fused with vector pVL1393 for baculovirus production (Pharmingen) digested with BamHI and EcoRI, using In-Fusion HD Cloning Kit (Takara Bio). The full-length human PLD1-expression plasmid DNA for baculovirus was isolated from Escherichia coli DH5a (TOYOBO) transformed with the obtained In-Fusion reaction product. Next, DNA fragment in which a FLAG-tag sequence is added to the 5′-end of full-length human PLD1 was amplified by PCR method, using the full-length human PLD1-expression plasmid DNA for baculovirus as a template. The amplified DNA fragment was fused with a DNA fragment in which a linker sequence is introduced into pcDNA3.4-TOPO (Life Technologies), using In-Fusion HD Cloning Kit (Takara Bio). The full-length human PLD1-expression plasmid DNA for animal cells was isolated from Escherichia coli DH5a transformed with the obtained In-Fusion reaction product. The base sequence of the full-length human PLD1 cloned into vector was determined by a Dye Terminator method using BigDye Terminator v3.1 Cycle Sequencing Kit (Applied Biosystems). The determined sequence was a sequence in which the FLAG-tag sequence was inserted at the 5′-end of the full-length human PLD1 (GenBank Accession Number: NM_001130081).
(§2) Expi293F cells (Life Technologies) were cultured with shaking using Expi293 Expression Medium (Life Technologies) as a medium at 37° C. in the presence of 8% CO2. The gene introduction reagent PEI was prepared by dissolving Polyethylenimine Max (nominally MW 40,000) (Polysciences) in MilliQ water, adjusting the pH of the solution to 7.0 with NaOH to obtain a 1 mg/mL solution, and then filtering the solution through 0.22 μm filter. The full-length human PLD1-expression plasmid DNA for animal cells was transfected into Expi293F cells using PEI, and after 48 hours of shaking culture, the cells were collected and stored at −80° C.
(§3) To the full-length human PLD1-expressed cells was added a Homogenate buffer (20 mmol/L Na-phosphate pH 7.5, 250 mmol/L NaCl, 1 mmol/L MgCl2, 1% β-OG, 0.05 mmol/L DTT+complete EDTA-free (Roche Diagnostics K.K.)), and the cells were lysed by Microfluidizer Processor M-110EH (Mizuho Kogyo Co., Ltd.). The lysate was centrifuged at 10,100×g at 4° C. for 15 minutes, and the supernatant was collected and filtered through 0.45 μm filter. To the centrifuged supernatant was added ANTI-FLAG M2 Affinity Gel (SIGMA-Aldrich) resin equilibrated with a Homogenate buffer, and the mixed solution was stirred at 4° C. for 1 hr or more. The mixed solution was loaded onto Poly-Prep column, and the resin was washed with a Wash buffer (20 mmol/L Na-phosphate pH 7.5, 150 mmol/L NaCl, 1 mmol/L MgCl2, 0.02% Triton, 0.05 mmol/L DTT). A Wash buffer containing 400 μg/mL DYKDDDDK Peptide (Scrum Inc.) was added to the column to elute the protein bound to the resin. The eluted fractions were subjected to SDS-PAGE followed by CBB staining to identify the fractions containing the full-length human PLD1. The eluted fractions of the full-length human PLD1 were collected and concentrated using Amicon Ultra-15 100k (Merck Millipore). The concentrated fractions were collected, flash-frozen in liquid nitrogen and stored at −80° C.
(§4) A DMSO or test substance solution (the DMSO final concentration: 5%) prepared by diluting DMSO or test substance with an Assay buffer (50 mmol/L HEPES pH 7.5, 80 mmol/L KCl, 3 mmol/L EGTA, 3.6 mmol/L MgCl2, 0.01% NP-40, 0.1% BSA), and the solution was added to a 384 well Assay Plate (Black, Polystyrene, Non-Treated, Cat No. 3573, Corning) by 5 μL/well. […]

A further test has as its target full-length human PLD2 (Homo sapiens (Human), UniProt O14939). In words: Evaluation of human PLD2 enzyme inhibitory activity (Amplex Red / choline oxidase fluorescence). Format: biochemical. Here is the method:
A method for measuring human PLD2 enzyme inhibitory activity using an enzyme in which a FLAG-tag is added to the N-terminus of full-length human PLD2 (1-933 amino acids) is shown below.
as §1, with “PLD2” for “PLD1”, “PLD2-expression” for “PLD1-expression”, “NM 002663).” for “NM_001130081).”
as §2, with “PLD2-expression” for “PLD1-expression”
as §3, with “PLD2-expressed” for “PLD1-expressed”, “PLD2.” for “PLD1.”, “PLD2” for “PLD1”
as §4

Where [1] appears, read: full-length human PLD1 enzyme, read-out: PLD1 IC50.
Where [2] appears, read: full-length human PLD2 enzyme, read-out: PLD2 IC50.

Where two headings read alike, the source gives them in different places. Bounds are passed on as bounds.

full-length human PLD1, sequence (Q13393 other isoform, or with tags, fused parts or gaps): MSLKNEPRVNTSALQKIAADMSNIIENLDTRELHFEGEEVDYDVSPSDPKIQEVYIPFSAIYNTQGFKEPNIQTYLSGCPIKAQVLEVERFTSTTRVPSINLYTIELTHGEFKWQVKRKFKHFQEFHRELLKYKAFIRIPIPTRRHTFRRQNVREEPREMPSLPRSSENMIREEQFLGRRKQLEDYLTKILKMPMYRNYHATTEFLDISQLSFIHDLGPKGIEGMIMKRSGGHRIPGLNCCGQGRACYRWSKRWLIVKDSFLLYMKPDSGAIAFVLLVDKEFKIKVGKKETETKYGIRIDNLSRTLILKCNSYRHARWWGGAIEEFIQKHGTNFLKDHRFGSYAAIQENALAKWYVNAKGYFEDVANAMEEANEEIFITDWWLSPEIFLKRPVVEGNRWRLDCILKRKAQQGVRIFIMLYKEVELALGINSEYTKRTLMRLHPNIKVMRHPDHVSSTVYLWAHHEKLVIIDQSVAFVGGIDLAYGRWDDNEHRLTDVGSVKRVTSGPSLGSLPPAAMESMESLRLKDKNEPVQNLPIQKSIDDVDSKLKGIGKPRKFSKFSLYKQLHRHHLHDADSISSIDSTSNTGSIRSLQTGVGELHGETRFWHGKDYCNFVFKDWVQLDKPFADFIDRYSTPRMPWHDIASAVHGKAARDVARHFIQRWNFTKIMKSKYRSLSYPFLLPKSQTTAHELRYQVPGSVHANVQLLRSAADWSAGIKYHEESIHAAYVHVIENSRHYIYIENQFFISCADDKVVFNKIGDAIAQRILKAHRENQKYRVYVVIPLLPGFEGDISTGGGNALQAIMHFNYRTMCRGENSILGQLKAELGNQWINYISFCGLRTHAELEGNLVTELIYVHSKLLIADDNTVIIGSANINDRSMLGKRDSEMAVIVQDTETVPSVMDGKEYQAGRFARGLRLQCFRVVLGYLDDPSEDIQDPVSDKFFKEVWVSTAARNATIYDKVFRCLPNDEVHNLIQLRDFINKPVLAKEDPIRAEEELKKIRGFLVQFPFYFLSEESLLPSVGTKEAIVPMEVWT
full-length human PLD2, sequence (O14939 whole entry, the tested form may be a part): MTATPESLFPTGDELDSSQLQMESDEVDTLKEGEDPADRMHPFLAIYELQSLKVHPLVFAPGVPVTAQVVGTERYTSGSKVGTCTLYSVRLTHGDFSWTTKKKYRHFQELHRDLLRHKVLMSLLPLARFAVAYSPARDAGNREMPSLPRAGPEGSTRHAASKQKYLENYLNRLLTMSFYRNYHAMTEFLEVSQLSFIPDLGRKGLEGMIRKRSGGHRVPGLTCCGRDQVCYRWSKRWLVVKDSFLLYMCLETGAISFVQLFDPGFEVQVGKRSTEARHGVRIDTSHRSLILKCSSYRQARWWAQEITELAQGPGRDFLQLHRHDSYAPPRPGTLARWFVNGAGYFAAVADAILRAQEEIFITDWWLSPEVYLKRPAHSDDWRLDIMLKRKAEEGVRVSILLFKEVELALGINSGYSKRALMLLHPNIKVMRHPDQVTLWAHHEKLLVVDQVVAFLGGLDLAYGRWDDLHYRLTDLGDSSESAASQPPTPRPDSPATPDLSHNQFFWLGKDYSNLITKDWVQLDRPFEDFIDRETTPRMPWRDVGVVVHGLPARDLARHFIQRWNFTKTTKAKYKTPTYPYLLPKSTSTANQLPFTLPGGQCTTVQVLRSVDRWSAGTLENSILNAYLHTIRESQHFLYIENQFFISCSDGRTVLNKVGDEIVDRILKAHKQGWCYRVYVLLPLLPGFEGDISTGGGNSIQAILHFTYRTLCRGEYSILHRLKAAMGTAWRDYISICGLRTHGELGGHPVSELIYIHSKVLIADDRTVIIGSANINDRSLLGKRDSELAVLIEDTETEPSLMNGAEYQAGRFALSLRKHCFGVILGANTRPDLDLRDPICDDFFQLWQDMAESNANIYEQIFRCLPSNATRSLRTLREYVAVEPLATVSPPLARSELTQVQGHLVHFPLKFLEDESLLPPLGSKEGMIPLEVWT

Regarding `CNC(=O)C(=O)N[C@@H](C)CN1CCC2(CC1)OC(=O)NN=C2c1ccc(Cl)cc1C` [Example 216], the IC50 – broadly, the point on the concentration scale where inhibition reaches its midpoint – on full-length human PLD1 (setting [1]) amounted to 29 nM; at full-length human PLD2 (setting [2]) it was 19 nM.

Regarding `[2H]C([2H])([2H])NC(=O)C(=O)N[C@@H](C)C[C@]1(C#N)CC[C@@]2(CC1)OC(=O)NN=C2c1cc(OC(F)F)ccc1Br` [Example 2-113], the IC50 at full-length human PLD1 (column 1 of continuation tables 2-12 to 2-14, read-out: human PLD1 enzyme inhibitory activity IC50) was 14 nM; on full-length human PLD2 (column 2 of continuation tables 2-12 to 2-14, read-out: human PLD2 enzyme inhibitory activity IC50), less than 10 nM.

With `C[C@@H](CN1CCC2(CC1)OC(=O)NN=C2c1ccc(F)cc1Br)NC(=O)c1cc2cc(F)ccc2[nH]1` [Example 2], the figures for the IC50 on full-length human PLD1 (setting [1]) and at full-length human PLD2 (setting [2]) were 20 nM and less than 10 nM, respectively.

In the case of `C[C@@H](CN1CCC2(CC1)OC(=O)NN=C2c1ccc(F)cc1Br)NC(=O)NC1CC1` [Example 189], the IC50 on full-length human PLD1 (setting [1]) turned out to be 130 nM; at full-length human PLD2 (setting [2]) it was 140 nM.

On to `CNC(=O)C(=O)N[C@@H](C)C[C@H]1CC[C@]2(CC1)OC(=O)NN=C2c1cnc(N2CC3(COC3)C2)cc1C` [Example 191], for which the half-inhibitory concentration (IC50) on full-length human PLD1 (setting [1]) was 38 nM; on full-length human PLD2 (setting [2]) it was less than 10 nM.

As for `Cc1cc(C(=O)N[C@@H](C)C[C@H]2CC[C@]3(CC2)OC(=O)NN=C3c2ccc(F)cc2Br)[nH]n1` [Example 12], the half-maximal inhibitory concentration (IC50) on full-length human PLD1 (setting [1]) and on full-length human PLD2 (setting [2]) was less than 10 nM throughout.

As to `Cc1cc(Br)ccc1C1=NNC(=O)O[C@]12CC[C@@H](C[C@H](C)NC(=O)NC1CC1)CC2` [Example 210], the IC50 was found to be 296 nM at full-length human PLD1 (setting [1]) and 1090 nM at full-length human PLD2 (setting [2]).

In the case of `CNC(=O)N[C@@H](C)C[C@H]1CC[C@]2(CC1)OC(=O)NN=C2c1ccc(F)cc1I` [Example 183], the figures for the 50% inhibitory concentration (IC50) on full-length human PLD1 (setting [1]) and at full-length human PLD2 (setting [2]) were 42 nM and 107 nM, respectively.

For `CNC(=O)C(=O)N[C@@H](C)CN1CCC2(CC1)OC(=O)NN=C2c1ccc(C#N)cc1Br` [Example 206], the IC50 at full-length human PLD1 (setting [1]) came out at 36 nM; at full-length human PLD2 (setting [2]), 13 nM.

For the compound `COc1cc(C)c(C2=NNC(=O)O[C@]23CC[C@@H](C[C@H](C)NC(=O)NCc2ccccn2)CC3)cn1` [Example 261], the IC50 is 168 nM on full-length human PLD1 (setting [1]) and 313 nM on full-length human PLD2 (setting [2]).

`CNC(=O)C(=O)N[C@@H](C)C[C@H]1CC[C@]2(CC1)OC(=O)NN=C2c1cnc(N2CC3CCC(C2)O3)cc1C` [Example 269]: the IC50 on full-length human PLD1 (setting [1]) is 18 nM; on full-length human PLD2 (setting [2]), less than 10 nM.

Regarding `CNC(=O)C(=O)N[C@@H](C)C[C@H]1CC[C@]2(CC1)OC(=O)NN=C2c1ccc(C(C)=O)cc1C` [Example 167], the IC50 on full-length human PLD1 (setting [1]) is 20 nM; at full-length human PLD2 (setting [2]), less than 10 nM.

Take `CNC(=O)C(=O)N[C@@H](C)C[C@H]1CC[C@]2(CC1)OC(=O)NN=C2c1cc(C#N)ccc1Br` [Example 198, N^1—((S)-1-(cis-5-(2-bromo-5-cyanophenyl)-2-oxo-1-oxa-3,4-diazaspiro[5.5]undec-4-en-9-yl)propan-2-yl)-N^2-methyloxamide]: the IC50 was 11 nM on full-length human PLD1 (setting [1]) and less than 10 nM at full-length human PLD2 (setting [2]).

As for `C[C@@H](C[C@H]1CC[C@]2(CC1)OC(=O)NN=C2c1ccc(F)cc1Br)NC(=O)c1ccccc1` [Example 40], the IC50 at full-length human PLD1 (setting [1]) is 13 nM; at full-length human PLD2 (setting [2]) it was less than 10 nM.

Consider `CNC(=O)C(=O)N[C@@H](C)C[C@]1(C#N)CC[C@@]2(CC1)OC(=O)NN=C2c1cc(C#N)ccc1Br` [Example 2-040], for which the IC50 at full-length human PLD1 (setting [1]) is 21 nM; at full-length human PLD2 (setting [2]), less than 10 nM.

With `CNC(=O)C(=O)N[C@@H](C)C[C@H]1CC[C@]2(CC1)OC(=O)NN=C2c1ccc(F)cc1C1CC1` [Example 64], the IC50 was 18 nM on full-length human PLD1 (setting [1]) and less than 10 nM on full-length human PLD2 (setting [2]).

On to `CSc1ccc(C2=NNC(=O)OC23CCN(C[C@H](C)NC(=O)c2cc4cc(F)ccc4o2)CC3)c(Cl)c1` [Example 115], for which the IC50 on full-length human PLD1 (setting [1]) is 15 nM; on full-length human PLD2 (setting [2]), less than 10 nM.

On to `COc1cc(C(=O)N[C@@H](C)C[C@H]2CC[C@]3(CC2)OC(=O)NN=C3c2ccc(F)cc2Br)on1` [Example 69], for which the concentration for half-maximal inhibition (IC50) at full-length human PLD1 (setting [1]) and on full-length human PLD2 (setting [2]) was less than 10 nM in each case.

Consider `CNC(=O)C(=O)N[C@@H](C)C[C@H]1CC[C@]2(CC1)OC(=O)NN=C2c1ccc(OC(F)F)cc1Br` [Example 140], for which the IC50 at full-length human PLD1 (setting [1]) and at full-length human PLD2 (setting [2]) was less than 10 nM each time.

As for `C[C@@H](C[C@H]1CC[C@]2(CC1)OC(=O)NN=C2c1ccc(F)cc1Br)NC(=O)C(F)Cl` (mixture of isomers) [Example 278], the IC50 is 246 nM at full-length human PLD1 (setting [1]) and 1180 nM on full-length human PLD2 (setting [2]).

Regarding `C[C@@H](C[C@H]1CC[C@]2(CC1)OC(=O)NN=C2c1cccc(OC(F)F)c1Br)NC(=O)C(=O)NC1CC1` [Example 308], the half-maximal inhibitory concentration (IC50) at full-length human PLD1 (setting [1]) is 15 nM; at full-length human PLD2 (setting [2]), less than 10 nM.

With `[2H]C([2H])([C@H](C)NC(=O)C(=O)NC)N1CCC2(CC1)OC(=O)NN=C2c1ccc(F)cc1Br` [Example 333], the figures for the IC50 at full-length human PLD1 (setting [1]) and on full-length human PLD2 (setting [2]) were 25 nM and less than 10 nM, respectively.
